Source: patent US9670229B2, “5-HT3 receptor antagonists” (Takeda Pharmaceutical Company Limited, priority 2012, dated 2017)

Target: 5-HT3a receptor expressed in HEK-293T cells (Homo sapiens (Human), UniProt P46098)
Experiment: Inhibition of Ca flux activity of 5-HT3 in vitro assay
Format: cell-based
Details: approximate IC50; calcium flux, 5HT 216 nM, HEK-293T cells transfected with 5-HT3a
Experimental: The 5-HT3 antagonist activity of the compounds of the invention was determined by measuring the ability of the compounds to inhibit the calcium flux activity of […] receptor expressed in HEK-293T cells. HEK-293T cells were transfected with the 5-HT3a expression construct using Xtreme Gene 9 (Roche) in 150 mm tissue culture treated plates and incubated for 24 hours at 37° C. Cells were then split and plated at a density of 60K cells/well in poly-lysine coated, black 96-well plates with clear bottoms (BD BioSciences) and incubated overnight at 37° C. Growth media was removed and cells loaded with 200 uL calcium indicator dye in HBSS containing 20 mM HEPES (Calcium 5 Assay kit, Molecular Devices) and incubated at 37° C. for 1 hour. While cells were incubating, the 10× antagonist and agonist/antagonist addition plates were made. For 10× antagonist plate: half log serial dilutions (final concentrations range from 10^−7 through 10^−10 with the bottom well a negative, no ligand control) were made from test compounds in DMSO at a 1000× concentration and then diluted to 10× in HBSS/20 mM HEPES. For addition plate: 5HT was diluted to 100× in HBSS/20 mM HEPES (final concentration in the assay-216 nM) and 15 uL was added to each well of the addition plate, 15 uL of 10× compound was also added to the addition plate, and finally 120 uL of HBSS/20 mM HEPES (for a total of 150 uL). Cells were then removed from the incubator and equilibrated to room temperature for 10 minutes, then 22.5 uL of 10× test compounds were added in triplicate to the plates and incubated at room temperature for 10 minutes (Tropisetron was used as a positive control in every assay). Test plate and addition plate were loaded into the FlexStation III (Molecular Devices), and using the fluidics, 22.5 uL compound additions were made (at t=˜17 seconds), and fluorescence was measured for 90 seconds, reading every 2.2 seconds. Data sets were analyzed as max minus min using Software Max Pro (Molecular Devices). IC50 curves were generated using non-linear regression in GraphPad Prism.

Sequence of 5-HT3a receptor expressed in HEK-293T cells (P46098 24-478): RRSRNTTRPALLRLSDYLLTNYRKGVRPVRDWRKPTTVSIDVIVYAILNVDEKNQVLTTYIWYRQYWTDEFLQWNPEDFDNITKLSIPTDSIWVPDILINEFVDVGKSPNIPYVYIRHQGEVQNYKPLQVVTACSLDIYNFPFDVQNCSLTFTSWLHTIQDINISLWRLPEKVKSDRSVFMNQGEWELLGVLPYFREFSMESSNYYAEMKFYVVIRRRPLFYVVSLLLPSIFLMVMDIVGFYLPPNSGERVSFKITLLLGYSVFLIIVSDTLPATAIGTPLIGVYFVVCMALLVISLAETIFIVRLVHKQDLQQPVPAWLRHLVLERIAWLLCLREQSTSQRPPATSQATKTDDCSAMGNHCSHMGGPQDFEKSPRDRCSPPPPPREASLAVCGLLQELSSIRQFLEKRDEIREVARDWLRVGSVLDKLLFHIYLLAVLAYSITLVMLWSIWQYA

Compound	IC50 [nM]
CN1[C@@H]2COC[C@H]1C[C@@H](NC(=O)c1cn(-c3ccccn3)c3ccccc13)C2 [Compound 6, N-((1R,5S,7S)-9-methyl-d3-3-oxa-9-azabicyclo[3.3.1]nonan-7-yl)-1-(pyridin-2-yl)-1H-indole-3-carboxamide, 2,2,2-trifluoroacetate]	1.1
CN1[C@@H]2COC[C@H]1C[C@@H](OC(=O)c1cn(-c3cnn(C)c3)c3ccccc13)C2 [Compound 26, (1R,5S,7S)-9-methyl-3-oxa-9-azabicyclo[3.3.1]nonan-7-yl 1-(1-methyl-1H-pyrazol-4-yl)-1H-indole-3-carboxylate]	1.2
CN1[C@@H]2COC[C@H]1C[C@@H](OC(=O)c1cn(-c3cn[nH]c3)c3ccccc13)C2 [Compound 29, (1R,5S,7S)-9-methyl-3-oxa-9-azabicyclo [3.3.1]nonan-7-yl 1-(1H-pyrazol-4-yl)-1H-indole-3-carboxylate]	0.462
CN1[C@@H]2COC[C@H]1C[C@@H](NC(=O)c1cn(-c3ccc[n+]([O-])c3)c3ccccc13)C2 [Compound 32, 3-(3-(((1R,5S,7S)-9-methyl-3-oxa-9-azabicyclo[3.3.1]nonan-7-yl)carbamoyl)-1H-indol-1-yl)pyridine 1-oxide]	1.36
(1R,5S,7S)-9-methyl-3-oxa-9-azabicyclo [3.3.1]nonan-7-yl 1-(1-(2-fluoroethyl)- 1H-pyrazol-4-yl)-1H-indole-3-carboxylate, 2,2,2-trifluoroacetic acid salt [Compound 18]	2.01
